Results reported in patent publication US12290535B2, “Langerin+ cell targeting” (Max-Planck-Gesellschaft zur Förderung der Wissenschaften …, priority 2018, dated 2025).

Biological target: T1, Langerin CRD (Homo sapiens, UniProt Q9UJ71, V278A)
T1 construct: residues 193 to 328; made in house; host or cells: E. coli BL21* (DE3)
Experiment: 15N HSQC NMR titration (KD determination)
Assay type: binding
Method: Langerin and DC-SIGN carbohydrate recognition domain. Expression and purification were conducted as previously published. Briefly, the monomeric ^15N-labeled Langerin and DC-SIGN carbohydrate recognition domains (CRDs) were expressed insolubly in E. coli BL21* (DE3) (Invitrogen). Following enzymatic cell lysis, inclusion bodies were harvested and subsequently solubilized. The sample was centrifuged and the Langerin and DC-SIGN CRDs were refolded overnight via rapid dilution. Next, the sample was dialyzed overnight, centrifuged and purified via StrepTactin affinity chromatography (Iba). […] The concentration of Langerin and DC-SIGN CRDs was determined via UV spectroscopy (A280, 0.1%=3.19 and A280, 0.1%=2.98). Purity and monodispersity of Langerin and DC-SIGN CRD samples were analyzed via SDS PAGE and DLS. […]
KD determination. KD values were determined in titration experiments at six ligand concentrations [L]T. Samples were prepared via serial dilution. Chemical shift perturbations CSPs for Langerin CRD resonances in the fast or fast-to-intermediate exchange regime observed upon titration with ligand were calculated via Equation 1 (Williamson, M. P. Using Chemical Shift Perturbation to Characterise Ligand Binding. Prog Nucl Magn Reson Spectrosc 73, 1-16 (2013)). […]

T1 sequence (Q9UJ71 193-328 V278A): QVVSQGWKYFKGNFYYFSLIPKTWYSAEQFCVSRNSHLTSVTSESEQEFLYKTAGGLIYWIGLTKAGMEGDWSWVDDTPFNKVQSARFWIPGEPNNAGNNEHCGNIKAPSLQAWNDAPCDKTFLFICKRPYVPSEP

Kd: 12 ± 1 mM
SMILES: CC(=O)NCCO[C@H]1O[C@H](CO)[C@@H](O)[C@H](O)[C@@H]1O [Man analog 21]
